The target of one data set is T1, cathepsin D (Bos taurus, UniProt P80209).
T1 construct: Prior to digestion with bovine spleen cathepsin D (Sigma); purchased Sigma; host or cells: bovine spleen (tissue-derived enzyme)
As to the kind of experiment: Exposure of LF digest to cathepsin D, persistence of the 6 kDa polypeptide. Format: in vitro ADME, bovine. The following applies: immunoblot. An excerpt: To establish which protease(s) could be responsible for releasing the N-terminal domain, LF processing by several proteases relevant to inflammation or microbial infections, including elastase, cathepsins G and D, a matrix metalloproteinase, and the “V8” protease from S. aureus, was examined. Of these, only cathepsin D, a lysosomal protease abundant in phagocytes (Bever et al., Inflammation 13: 309-16 (1989); Levy et al., Infect. Immun. 57: 1632-4 (1989)), was able to liberate the N-terminus intact as a small, heparin-binding, polypeptide. Exposure of either iron-saturated or iron-free LF to even small amounts of cathepsin D (1/200th, w:w) for a period as brief as five minutes yielded the N-terminal 6 kDa polypeptide, detectable by immunoblot analysis, using the N-terminal peptide-specific antibody. […] MALDI mass spectrometry analysis indicated a molecular mass of 5741 Da, very close to the value of 5744 Da expected for a LF polypeptide starting at Gly-1 and ending with Ala-49.
Purification of LF from human colostrum and proteolytic liberation of the antimicrobial domain in vitro. Frozen colostrum was thawed at 37° C. and defatted by centrifugation for 40 min at 10,000×g at 4° C. […] LF concentration was determined spectrophotometrically at 280 nm (using E280nm 1 cm 0.1%=1.0402). […]

For data set [1], the system named is E. coli 0111. Kind of data set: Galactosamine-sensitized, leukopenic mouse model of bacteremic lethality. The following applies: 100 μM, i.p., simultaneous with lethal E. coli dose; 10% in untreated animals. Format: in vivo, CF-1 mice. As for the experimental part: The ultimate protective potential of the LF 6 kDa polypeptide in a host-defense against bacterial infection was determined by testing in an acute, galactosamine-sensitized, leukopenic mouse model system (Bucklin et al., J. Infect. Dis. 174: 1249-1254 (1996)). In this model, mice were made leukopenic to suppress their endogenous host defense systems and then sensitized to the effects of Gram-negative endotoxins by galactosamine treatment while injecting a lethal intraperitoneal dose of E. coli. […] This rescue from lethality dramatically illustrates the protective potential of the polypeptide in vivo and is likely due to its combined antimicrobial and anti-endotoxin properties.
Generation of galactosamine-sensitized, leukopenic mouse model system. CF-1 mice were rendered immunocompromised by cyclophosphamide treatment three days prior to galactosamine-sensitizing them to the lethal effects of injection with an LD90 dose of E. coli 0111 (Bucklin et al., J. Infect. Dis. 174: 1249-1254 (1996)). Under these conditions, circulating leukocytes were reduced by 85% and the LD90 was determined to be 5×10^3 CFU E. coli.

Data set [2] deals with E. coli 0111. As to the kind of experiment: Time course of E. coli growth in the presence of LF polypeptides. It is filed as cell-based. Particulars: 50 μM, seven hour time course, OD 600 nm. The method, then: To investigate whether regions of the molecule involved in GAG binding activity of the 6 kDa LF polypeptide (generated from pepsin digestion) are also involved in the antimicrobial activity of the 6 kDa polypeptide of the present invention, polypeptides of various lengths corresponding to the N-terminal amino acid sequence of LF were tested for the ability to inhibit the growth of E. coli 0111. Overnight cultures were grown over a seven hour time course in the presence of 50 μM of either LF, a 33-mer corresponding to amino acids 1-33 of LF, a 26-mer corresponding to […] of LF, a 27-mer corresponding to amino acids 1-27 of LF. […] This is consistent with LF and the 33-mer inhibiting bacterial growth via different mechanisms. […] The failure of the 26-mer and the 27-mer to inhibit culture growth emphasizes the importance of retaining both clusters of basic residues, at the termini of the 33-mer, for the antimicrobial functionality of polypeptides derived from the N-terminal LF sequence.
Time course of E. coli growth in the presence of LF polypeptides. E. coli cells, clinical isolate strain 0111, were obtained from ATCC. […] Culture growth was monitored spectrophotometrically by measuring optical density at 600 nm at each indicated time point.

T1 sequence (P80209 45-390): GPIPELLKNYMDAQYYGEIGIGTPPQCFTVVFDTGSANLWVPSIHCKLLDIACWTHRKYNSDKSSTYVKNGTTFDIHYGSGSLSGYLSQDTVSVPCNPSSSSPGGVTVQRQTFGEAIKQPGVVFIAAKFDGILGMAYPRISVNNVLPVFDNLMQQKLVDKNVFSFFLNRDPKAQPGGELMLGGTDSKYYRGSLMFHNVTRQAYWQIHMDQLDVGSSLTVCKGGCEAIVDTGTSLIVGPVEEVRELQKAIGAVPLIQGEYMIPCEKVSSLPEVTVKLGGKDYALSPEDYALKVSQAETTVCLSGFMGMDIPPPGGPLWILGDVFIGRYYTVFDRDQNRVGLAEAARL

Take “6 kDa polypeptide: 6 kDa fragment produced by cathepsin D digestion of human LF, amino acids 1-49 of SEQ ID NO: 2 (GRRRRSVQWCAVSQPEATKCFQWQRNMRKVRGPPVSCIKRDSPIQCIQA; listed as Homo sapiens)”: in the data set with cathepsin D, the “stability of the polypeptide on longer exposure to cathepsin D” value was “stable and resistant to further degradation for at least three days”. Also, in the data set with E. coli 0111 [1], the “survival rate of infected animals” value is 70%.

With `CSCC[C@H](NC(=O)[C@H](CC(N)=O)NC(=O)[C@H](CCCNC(=N)N)NC(=O)[C@H](CCC(N)=O)NC(=O)[C@H](Cc1c[nH]c2ccccc12)NC(=O)[C@H](CCC(N)=O)NC(=O)[C@H](Cc1ccccc1)NC(=O)[C@H](CS)NC(=O)[C@H](CCCCN)NC(=O)[C@@H](NC(=O)[C@H](C)NC(=O)[C@H](CCC(=O)O)NC(=O)[C@@H]1CCCN1C(=O)[C@H](CCC(N)=O)NC(=O)[C@H](CO)NC(=O)[C@@H](NC(=O)[C@H](C)NC(=O)[C@H](CS)NC(=O)[C@H](Cc1c[nH]c2ccccc12)NC(=O)[C@H](CCC(N)=O)NC(=O)[C@@H](N)C(C)C)C(C)C)[C@@H](C)O)C(=O)N[C@@H](CCCNC(=N)N)C(=O)N[C@@H](CCCCN)C(=O)N[C@H](C(=O)N[C@@H](CCCNC(=N)N)C(=O)NCC(=O)N1CCC[C@H]1C(=O)O)C(C)C` [LF-27], the “growth of E. coli 0111 cultures” value with E. coli 0111 [2] is given as “failure”.

For the origin of these results see US6399570B1, “Antimicrobial/endotoxin neutralizing polypeptide” (priority 1999, dated 2002).
